The results in this text go back to US20040142929A1, “Derivatives of aryl (or heteroaryl) azolylcarbinoles for the treatment of urinary incontinence” (priority 2001, published 2004).

Assay [1] has as its system Urinary incontinence secondary to overactive bladder (detrusor hyperreflexia or instability) or idiopathic urge incontinence. The experiment in a line: Clinical Study A: placebo controlled clinical trial, 84 days. The format is in vivo, human. On the procedure:
In a placebo controlled clinical trial 79 patients were randomised. Patients from both genders aged between 18 and 80 years (both inclusive) were included. They had Urinary incontinence secondary to overactive bladder (detrusor hyperreflexia or instability) or idiopathic urge incontinence confirmed by the medical history and urodynamic study.
The patients were treated within one group with (±)-5-{α-[2-(dimethylamino)ethoxy]benzyl}-1-methyl-1H-pirazole citrate, 400 mg, twice a day, tablets for oral administration, or within another group with placebo in matching tablets, twice a day, for administration by oral route. The patients were treated for 84 days.
Efficacy was measured by the difference from baseline in the mean number of leakages, micturitions, urgencies and voidings/24 hours as provided by a 7-day frequency-volume chart in the end of study visit
The primary efficacy analysis was based on the PP population. The treatment groups were compared with respect to the treatment effect, defined as the difference between treatment groups for changes from baseline in the number of voidings per 24 hours.
(§1) As an addition the percentage of responders was compared based on an analysis of the number of patients having <8 voidings/day or experienced complete dryness or both. The statistical significance was determined.

Assay [2] has the same test system. The experiment in a line: Clinical Study B: placebo controlled clinical trial, 84 days. It counts as in vivo, human. On the procedure: In a placebo controlled clinical trial 135 patients were randomised. Patients from both genders aged between 18 and 80 years (both inclusive) were included. They had Urinary incontinence secondary to overactive bladder (detrusor hyperreflexia or instability) or idiopathic urge incontinence confirmed by the medical history and urodynamic study.
The patients were treated within one group with […]{α-[2-(dimethylamino)ethoxy]benzyl}-1-methyl-1H-pirazole citrate, 230 mg b.i.d, capsules (meaning 400 mg (±)-5-{α-[2-(dimethylamino)ethoxy]benzyl}-1-methyl-1H-pirazole citrate/capsule) for oral administration (twice daily) or within another group with placebo, matching capsules, […], for administration by oral route. The patients were treated for 84 days.
Efficacy was measured by the difference from baseline in the mean number of voidings/24 hours as provided by a 7-day frequency-volume chart in the end of study visit.
The primary efficacy analysis was based on the PP population. […]
as §1

The mark [3] stands for this setting: patients, 400 mg citrate twice a day, oral tablets, 84 days, difference from baseline, 7-day frequency-volume chart.

For the compound `CN(C)CCOC(c1ccccc1)c1ccnn1C.O=C(O)CC(O)(CC(=O)O)C(=O)O` (racemic) [(±)-5-{α-[2-(dimethylamino)ethoxy]benzyl}-1-methyl-1H-pirazole citrate], the “improving urge incontinence caused by overactive bladder: efficacy variables compared to placebo” value in assay [1] (citrate 400 mg twice a day (equivalent to 230 mg base twice a day), oral route) is “statistical and clinically significant improvements compared to placebo in the majority of efficacy variables considered”. In assay [1] (setting [3]), the “mean number of daily leakages compared with placebo” value is “significant reduction”, the “mean number of daily micturitions compared with placebo” value is “significant reduction”, the “mean number of daily urgencies compared with placebo” value is “significant reduction” and the “mean number of daily voidings compared with placebo” value was “significant reduction”.

As for `CN(C)CCOC(c1ccccc1)c1ccnn1C.O=C(O)CC(O)(CC(=O)O)C(=O)O` (racemic) [(±)-5-{α-[2-(dimethylamino)ethoxy]benzyl}-1-methyl-1H-pirazole], the “percentage of responders (patients having <8 voidings/day or complete dryness or both) versus placebo” value is given as “superior to placebo” in assay [1] (patients, 400 mg citrate twice a day, oral, 84 days, FIG. 1) and “superior to placebo” in assay [2] (230 mg b.i.d., oral, FIG. 2). Further, the “reduction of the mean number of voidings per 24 hours (change from baseline)” value in assay [2] (patients, 230 mg b.i.d. (400 mg citrate/capsule), oral capsules, PP population) is listed as 5.83 units.
